As usually defined, the IC50 is the concentration that gives 50% inhibition. Read a high IC50 as weaker potency in that assay.

Some results are limits rather than exact numbers.

The values below come from patent US8906852B2 (MethylGene Inc., priority 2010, dated 2014).

T1 sequence (P35968 806-1356): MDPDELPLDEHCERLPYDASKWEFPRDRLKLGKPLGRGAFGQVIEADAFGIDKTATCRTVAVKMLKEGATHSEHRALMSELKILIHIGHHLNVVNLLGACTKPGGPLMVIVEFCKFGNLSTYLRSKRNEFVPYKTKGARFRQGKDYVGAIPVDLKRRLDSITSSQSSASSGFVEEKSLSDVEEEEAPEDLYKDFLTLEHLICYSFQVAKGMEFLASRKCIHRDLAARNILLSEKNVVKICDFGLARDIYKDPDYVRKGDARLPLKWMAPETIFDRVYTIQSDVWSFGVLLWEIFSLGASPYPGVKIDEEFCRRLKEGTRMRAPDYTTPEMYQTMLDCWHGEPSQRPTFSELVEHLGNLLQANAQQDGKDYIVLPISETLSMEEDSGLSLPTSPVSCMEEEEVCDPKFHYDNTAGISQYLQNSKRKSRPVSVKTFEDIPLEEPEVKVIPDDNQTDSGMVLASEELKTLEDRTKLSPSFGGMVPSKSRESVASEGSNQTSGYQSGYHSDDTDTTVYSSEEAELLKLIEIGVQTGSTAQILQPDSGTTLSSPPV

The test has as its target T1, VEGFR/KDR (Homo sapiens, UniProt P35968).
T1 construct: made in house; host or cells: Sf9 cells (Spodoptera frugiperda), baculovirus
The test is described as follows: VEGFR/KDR kinase inhibition, DELFIA assay. In kind it is biochemical. The settings on record: ATP 0.6 uM (2x Km), enzyme 5 nM. On the procedure: Inhibition of VEGFR/KDR is measured in a DELFIA™ assay (Perkin Elmer). The substrate poly(Glu4, Tyr) is immobilized onto black high-binding polystyrene 96-well plates. The coated plates are washed and stored at 4° C. During the assay, the enzyme is pre-incubated with inhibitor and Mg-ATP on ice in polypropylene 96-well plates for 4 minutes, and then transferred to the coated plates. The subsequent kinase reaction takes place at 30° C. for 10-30 minutes. ATP concentrations in the assay are 0.6 uM for VEGFR/KDR (2× the Km). Enzyme concentration is 5 nM. After incubation, the kinase reactions are quenched with EDTA and the plates are washed. Phosphorylated product is detected by incubation with Europium-labeled anti-phosphotyrosine MoAb. After washing the plates, bound MoAb is detected by time-resolved fluorescence in a Gemini SpectraMax reader (Molecular Devices). Compounds are evaluated over a range of concentrations, and IC50 values (concentration of compounds giving 50% inhibition of enzymatic activity) are determined.
With `CC(C)[C@H](N)C(=O)N1CCN(Cc2ccc(-c3cc4nccc(Oc5ccc(NC(=O)NC6CC6)cc5F)c4s3)nc2)CC1` [Compound 76, (S)-1-(4-(2-(5-((4-(2-amino-3-methylbutanoyl)piperazin-1-yl)methyl)pyridin-2-yl)thieno[3,2-b]pyridin-7-yloxy)-3-fluorophenyl)-3-cyclopropylurea], the IC50 was less than 50 nM.

Turning to `NCC(=O)N1CCN(Cc2ccc(-c3cc4nccc(Oc5ccc(NC(=O)NC6CC6)cc5F)c4s3)nc2)CC1` [Compound 77, 1-(4-(2-(5-((4-(2-aminoacetyl)piperazin-1-yl)methyl)pyridin-2-yl)thieno[3,2-b]-pyridin-7-yloxy)-3-fluorophenyl)-3-cyclopropylurea], the half-maximal inhibitory concentration (IC50) is less than 50 nM.

In the case of `CC(C)[C@H](N)C(=O)OCCN1CCN(Cc2ccc(-c3cc4nccc(Oc5ccc(NC(=O)NC6CC6)cc5F)c4s3)nc2)CC1` [Compound 79, (S)-2-(4-((6-(7-(4-(3-cyclopropylureido)-2-fluorophenoxy)thieno[3,2-b]pyridin-2-yl)pyridin-3-yl)methyl)piperazin-1-yl)ethyl 2-amino-3-methylbutanoate], the half-inhibitory concentration (IC50) is less than 50 nM.

Compound `CNC(=O)CCN1CCN(Cc2ccc(-c3cc4nccc(Oc5ccc(NC(=O)NC6CC6)cc5F)c4s3)nc2)CC1` [Compound 81, 3-(4-((6-(7-(4-(3-cyclopropylureido)-2-fluorophenoxy)thieno[3,2-b]pyridin-2-yl)pyridin-3-yl)methyl)piperazin-1-yl)-N-methylpropanamide] came in with an IC50 of less than 50 nM.

For `NC(=O)CCN1CCN(Cc2ccc(-c3cc4nccc(Oc5ccc(NC(=O)NC6CC6)cc5F)c4s3)nc2)CC1` [Compound 82, 3-(4-((6-(7-(4-(3-cyclopropylureido)-2-fIuorophenoxy)-thieno[3,2-b]pyridin-2-yl)pyridin-3-yl)methyl)piperazin-l-yl)propanamide], the IC50 was less than 50 nM.

`O=C(Nc1ccc(Oc2ccnc3cc(-c4ccc(CN5CCN(CC(F)(F)F)CC5)cn4)sc23)c(F)c1)NC1CC1` [Compound 84, 1-cyclopropyl-3-(3-fluoro-4-(2-(5-((4-(2,2,2-trifluoroethyl)piperazin-1-yl)methyl)-pyridin-2-yl)thieno[3,2-b]pyridin-7-yloxy)phenyl)urea] had an IC50 of less than 50 nM.

`COCCN(Cc1ccc(-c2cc3nccc(Oc4ccc(NC(=O)NC5CC5)cc4F)c3s2)nc1)C(=O)COC` [Compound 85] showed a half-maximal inhibitory concentration (IC50) of less than 50 nM.

The compound `CCC(=O)N(CCOC)Cc1ccc(-c2cc3nccc(Oc4ccc(NC(=O)NC5CC5)cc4F)c3s2)nc1` [Compound 86, N-((6-(7-(4-(3-cyclopropylureido)-2-fluorophenoxy)thieno[3,2-b]pyridin-2-yl)pyridin-3-yl)methyl)-N-(2-methoxyethyl)propionamide] had a 50% inhibitory concentration (IC50) of less than 50 nM.

For the compound `COCCN(Cc1ccc(-c2cc3nccc(Oc4ccc(NC(=O)NC5CC5)cc4F)c3s2)nc1)C(=O)[C@@H](N)C(C)(C)C` [Compound 88, (S)-2-amino-N-((6-(7-(4-(3-cyclopropylureido)-2-fluorophenoxy)thieno[3,2-b]pyridin-2-yl)pyridin-3-yl)methyl)-N-(2-methoxyethyl)-3,3-dimethylbutanamide], the IC50 is less than 50 nM.

For `COCCN(Cc1ccc(-c2cc3nccc(Oc4ccc(NC(=O)NC5CC5)cc4F)c3s2)nc1)C(=O)CNC(=O)[C@@H](N)C(C)C` [Compound 92, (S)-2-amino-N-(2-(((6-(7-(4-(3-cyclopropylureido)-2-fluorophenoxy)thieno[3,2-b]pyridin-2-yl)pyridin-3-yl)methyl)(2-methoxyethyl)amino)-2-oxoethyl)-3-methylbutanamide], the IC50 is less than 50 nM.

As to `COCCN(Cc1ccc(-c2cc3nccc(Oc4ccc(NC(=O)NC5CC5)cc4F)c3s2)nc1)C(=O)CNC(=O)CN` [Compound 92-A, 2-(2-aminoacetamido)-N-((6-(7-(4-(3-cyclopropylureido)-2-fluorophenoxy)thieno[3,2-b]pyridin-2-yl)pyridin-3-yl)methyl)-N-(2-methoxyethyl)acetamide], the half-maximal inhibitory concentration (IC50) was less than 50 nM.

`COCCN(Cc1ccc(-c2cc3nccc(Oc4ccc(NC(=O)NC5CC5)cc4F)c3s2)nc1)C(=O)[C@@H](NC(=O)CN)C(C)C` [Compound 93, (S)-2-(2-aminoacetamido)-N-((6-(7-(4-(3-cyclopropylureido)-2-fluorophenoxy)-thieno[3,2-b]pyridin-2-yl)pyridin-3-yl)methyl)-N-(2-methoxyethyl)-3-methylbutanamide] displayed an IC50 of less than 50 nM.

Compound `CS(=O)(=O)c1cccc(NC(=O)Nc2ccc(Oc3ccnc4cc(-c5ccc(CN6CCCC6=O)cn5)sc34)c(F)c2)c1` [Compound 105] yielded a half-maximal inhibitory concentration (IC50) of less than 50 nM.

As to `NC(=O)c1cccc(NC(=O)Nc2ccc(Oc3ccnc4cc(-c5ccc(CN6CCCC6=O)cn5)sc34)c(F)c2)c1` [Compound 106, 3-(3-(3-fluoro-4-(2-(5-((2-oxopyrrolidin-1-yl)methyl)pyridin-2-yl)thieno[3,2-b]pyridin-7-yloxy)phenyl)ureido)benzamide], the IC50 is less than 50 nM.

Compound `N[C@H]1CCN(Cc2ccc(-c3cc4nccc(Oc5ccc(NC(=O)NC6CC6)cc5F)c4s3)nc2)C1=O` [Compound 108, (S)-1-(4-(2-(5-((3-amino-2-oxopyrrolidin-1-yl)methyl)pyridin-2-yl)thieno[3,2-b]pyridin-7-yloxy)-3-fluorophenyl)-3-cyclopropylurea] displayed an IC50 of less than 50 nM.

The compound `N[C@@H]1CCN(Cc2ccc(-c3cc4nccc(Oc5ccc(NC(=O)NC6CC6)cc5F)c4s3)nc2)C1=O` [Compound 109, (R)-1-(4-(2-(5-((3-amino-2-oxopyrrolidin-1-yl)methyl)pyridin-2-yl)thieno[3,2-b]pyridin-7-yloxy)-3-fluorophenyl)-3-cyclopropylurea] gave an IC50 of less than 50 nM.

For `O=C(Nc1ccc(Oc2ccnc3cc(-c4ccc(CN5CC[C@H](O)C5=O)cn4)sc23)c(F)c1)NC1CC1` [Compound 110, (S)-1-cyclopropyl-3-(3-fluoro-4-(2-(5-((3-hydroxy-2-oxopyrrolidin-1-yl)methyl)pyridin-2-yl)thieno[3,2-b]pyridin-7-yloxy)phenyl)urea], the concentration for half-maximal inhibition (IC50) is less than 50 nM.

For the compound `COCCNCc1ccc(-c2cc3nccc(Oc4ccc(NC(=O)NC5CC5)cc4F)c3s2)cc1` [Compound 113], the IC50 was less than 50 nM.

Compound `COCCN(Cc1ccc(-c2cc3nccc(Oc4ccc(NC(=O)NC5CC5)cc4F)c3s2)cc1)C(C)=O` [Compound 114, N-(4-(7-(4-(3-cyclopropylureido)-2-fluorophenoxy)thieno[3,2-b]pyridin-2-yl)benzyl)-N-(2-methoxyethyl)acetamide] yielded an IC50 of less than 50 nM.

Take `COCCOCC(=O)N(CCOC)Cc1ccc(-c2cc3nccc(Oc4ccc(NC(=O)NC5CC5)cc4F)c3s2)cc1` [Compound 115, N-(4-(7-(4-(3-cyclopropylureido)-2-fluorophenoxy)thieno[3,2-b]pyridin-2-yl)benzyl)-2-(2-methoxyethoxy)-N-(2-methoxyethyl)acetamide]: the IC50 was less than 50 nM.

The compound `COCCN(Cc1ccc(-c2cc3nccc(Oc4ccc(NC(=O)NC5CC5)cc4F)c3s2)cc1)C(=O)CO` [Compound 115-A, N-(4-(7-(4-(3-cyclopropylureido)-2-fluorophenoxy)thieno[3,2-b]pyridin-2-yl)benzyl)-2-hydroxy-N-(2-methoxyethyl)acetamide] came in with a half-inhibitory concentration (IC50) of less than 50 nM.

Compound `COCCN(Cc1ccc(-c2cc3nccc(Oc4ccc(NC(=O)NC5CC5)c(Cl)c4)c3s2)nc1)C(C)=O` [Compound 116, N-((6-(7-(3-chloro-4-(3-cyclopropylureido)phenoxy)thieno[3,2-b]pyridin-2-yl)pyridin-3-yl)methyl)-N-(2-methoxyethyl)acetamide] gave an IC50 of less than 50 nM.

`COCCN(Cc1cnc(-c2cc3nccc(Oc4ccc(NC(=O)Nc5ccc(F)cc5F)cc4F)c3s2)n1C)C(C)=O` [Compound 117, N-((2-(7-(4-(3-(2,4-difluorophenyl)ureido)-2-fluorophenoxy)thieno[3,2-b]pyridin-2-yl)-1-methyl-1H-imidazol-5-yl)methyl)-N-(2-methoxyethyl)acetamide] registered a 50% inhibitory concentration (IC50) of less than 50 nM.

In turn, `COCCN(Cc1cnc(-c2cc3nccc(Oc4ccc(NC(=O)NC(C)C)cc4F)c3s2)n1C)C(C)=O` [Compound 117-A, N-((2-(7-(2-fluoro-4-(3-isopropylureido)phenoxy)thieno[3,2-b]-pyridin-2-yl)-1-methyl-1H-imidazol-5-yl)methyl)-N-(2-methoxyethyl)acetamide] gave an IC50 of 50 to 100 nM.

As to `O=C(Nc1ccc(Oc2ccnc3cc(C#CCN4CCOCC4)sc23)c(F)c1)Nc1ccc(F)cc1F` [Compound 119, 1-(2,4-difluorophenyl)-3-(3-fluoro-4-(2-(3-morpholinoprop-1-ynyl)thieno[3,2-b]pyridin-7-yloxy)phenyl)urea], the IC50 was in the range of 100 to 250 nM.

As for `O=C(Nc1ccccc1)Nc1ccc(Oc2ccnc3cc(C#CCN4CCOCC4)sc23)c(F)c1` [Compound 120, 1-(3-fluoro-4-(2-(3-morpholinoprop-1-ynyl)thieno[3,2-b]pyridin-7-yloxy)phenyl)-3-phenylurea], the IC50 lay in the range of 100 to 250 nM.

For the compound `O=C(Nc1ccc(Oc2ccnc3cc(-c4ccc(CN5CCOCC5=O)cn4)sc23)c(F)c1)NC1CC1` [Compound 123, 1-cyclopropyl-3-(3-fluoro-4-(2-(5-((3-oxomorpholino)methyl)pyridin-2-yl)thieno[3,2-b]pyridin-7-yloxy)phenyl)urea], the IC50 was less than 50 nM.
